Assays:
IDO1 = target: T1, IDO1 (Homo sapiens, UniProt P14902); assay: IDO1 cell-based assay (HeLa cells, IFNgamma-induced, N-formylkynurenine/L-tryptophan by RFMS); settings: 10 ng/mL IFNgamma, 24 hours
T1 construct: endogenous in cells; host or cells: HeLa cells (ATCC), IFNgamma-induced
Procedure, shortened: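 HeLa cells stimulated with 10 ng/mL IFNgamma and exposed to compound (0.5% DMSO final) for 24 h at 37 °C. Conditioned media deproteinized, then N-formylkynurenine and L-tryptophan quantified by RapidFire MS with deuterated tryptophan internal standard; IC50 by curve fitting. Viability checked by CellTiter-Glo.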

mouse IDO1 = target: T2, mouse IDO1 (Mus musculus, UniProt P28776); assay: Mouse IDO1 cell-based assay (PANC02 cells, mouse IFNgamma-induced, N-formylkynurenine/L-tryptophan by RFMS); settings: 30 ng/mL mouse IFNgamma, 48 hours
T2 construct: The murine PANC02 pancreatic ductal adenocarcinoma cell line was routinely maintained in DMEM media; endogenous in cells; host or cells: PANC02 murine pancreatic ductal adenocarcinoma cells, induced with mouse IFNgamma
T2 sequence (P28776 whole entry): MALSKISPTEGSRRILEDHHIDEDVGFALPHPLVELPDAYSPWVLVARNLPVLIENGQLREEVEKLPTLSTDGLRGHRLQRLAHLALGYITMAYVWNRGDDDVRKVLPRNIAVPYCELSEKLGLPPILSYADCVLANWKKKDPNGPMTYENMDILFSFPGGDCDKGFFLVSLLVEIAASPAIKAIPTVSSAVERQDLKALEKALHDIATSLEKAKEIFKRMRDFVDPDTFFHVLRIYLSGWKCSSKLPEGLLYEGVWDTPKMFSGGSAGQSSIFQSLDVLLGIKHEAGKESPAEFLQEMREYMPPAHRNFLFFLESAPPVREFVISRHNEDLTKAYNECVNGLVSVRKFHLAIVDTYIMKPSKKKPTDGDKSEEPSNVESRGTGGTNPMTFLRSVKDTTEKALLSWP

T1 sequence (P14902 whole entry): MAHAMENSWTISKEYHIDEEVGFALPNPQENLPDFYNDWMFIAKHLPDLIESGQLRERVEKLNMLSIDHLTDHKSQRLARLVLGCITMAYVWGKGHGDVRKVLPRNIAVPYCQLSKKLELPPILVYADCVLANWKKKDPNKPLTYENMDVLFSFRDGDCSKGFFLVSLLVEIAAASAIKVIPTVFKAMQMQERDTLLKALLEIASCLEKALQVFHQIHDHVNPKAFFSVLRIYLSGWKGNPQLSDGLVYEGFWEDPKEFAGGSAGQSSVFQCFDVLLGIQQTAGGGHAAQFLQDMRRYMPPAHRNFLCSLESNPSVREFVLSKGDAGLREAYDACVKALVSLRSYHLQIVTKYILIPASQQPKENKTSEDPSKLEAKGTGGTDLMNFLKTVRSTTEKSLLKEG

SMILES | IC50 (IDO1) [nM] | IC50 (mouse IDO1) [nM]
CCC(NC(=O)c1ccc(Cl)cc1)[C@H]1[C@@H]2C[C@@H](Nc3c([N+](=O)[O-])ccc(F)c3F)C[C@@H]21 (stereo partly drawn) [Compound 244, 4-chloro-N-(1-((1R,3s,5S,6r)-3-((2,3-difluoro-6-nitrophenyl)amino)bicyclo[3.1.0]hexan-6-yl)propyl)benzamide] | < 200 | 500 to 2000
CCC(NC(=O)c1ccc(Cl)cc1)[C@H]1[C@@H]2C[C@@H](NC(=O)c3cccnc3C)C[C@@H]21 (stereo partly drawn) [Compound 223, N-((1R,3s,5S,6r)-6-(1-(4-chlorobenzamido)propyl)bicyclo[3.1.0]hexan-3-yl)-2-methylnicotinamide] | < 200 | > 5000
CCC(NC(=O)c1ccc(Cl)cc1)[C@H]1[C@@H]2C[C@@H](n3ncc4cccc(F)c43)C[C@@H]21 (stereo partly drawn) [Compound 206, 4-chloro-N-(1-((1R,3s,5S,6r)-3-(7-fluoro-1H-indazol-1-yl)bicyclo[3.1.0]hexan-6-yl)propyl)benzamide] | < 200 | 500 to 2000

From patent US11173145B2, “Compounds useful as inhibitors of indoleamine 2,3-dioxygenase and/or tryptophan dioxygenase” (Board of Regents, The University of Texas System, priority 2017, dated 2021)
